Source: patent US4680382A, “Analogues of actinomycin D” (priority 1986, dated 1987)
*1 amine or outer side, *2 acyl side, *3 side chain or, on linkers, in order; H or OH if unused. Where a SMILES comes first, the peptide text is derived from it. Bridges are numbered along the chain shown (N, C = ends). Roman numbers before positions name the chains, in order. [ ]: non-standard residue; d: D form. Actinocin(9to1) = Cc1c2oc3c(C)ccc(C(=O)[*:1])c3nc-2c(C(=O)[*:2])c(N)c1=O; NMeV = CN[C@H](C(=O)O)C(C)C; Sar = CNCC(=O)O

Key:
[1] = target: T1, NADPH cytochrome P-450 reductase (rat liver microsomes) (Rattus norvegicus, UniProt P00388); experiment: Stimulation of NADPH oxidation in rat hepatic microsomal incubations; details: for NADPH oxid: 340 nm, 37° C., phenobarbital induced microsomes, mean ± standard error of triplicate, basal 9.11 ± 0.30; for percentage stimulation of NADPH oxidation over basal rate: (drug-stimulated rate - basal rate)/basal rate × 100
T1 sequence (P00388 1-678): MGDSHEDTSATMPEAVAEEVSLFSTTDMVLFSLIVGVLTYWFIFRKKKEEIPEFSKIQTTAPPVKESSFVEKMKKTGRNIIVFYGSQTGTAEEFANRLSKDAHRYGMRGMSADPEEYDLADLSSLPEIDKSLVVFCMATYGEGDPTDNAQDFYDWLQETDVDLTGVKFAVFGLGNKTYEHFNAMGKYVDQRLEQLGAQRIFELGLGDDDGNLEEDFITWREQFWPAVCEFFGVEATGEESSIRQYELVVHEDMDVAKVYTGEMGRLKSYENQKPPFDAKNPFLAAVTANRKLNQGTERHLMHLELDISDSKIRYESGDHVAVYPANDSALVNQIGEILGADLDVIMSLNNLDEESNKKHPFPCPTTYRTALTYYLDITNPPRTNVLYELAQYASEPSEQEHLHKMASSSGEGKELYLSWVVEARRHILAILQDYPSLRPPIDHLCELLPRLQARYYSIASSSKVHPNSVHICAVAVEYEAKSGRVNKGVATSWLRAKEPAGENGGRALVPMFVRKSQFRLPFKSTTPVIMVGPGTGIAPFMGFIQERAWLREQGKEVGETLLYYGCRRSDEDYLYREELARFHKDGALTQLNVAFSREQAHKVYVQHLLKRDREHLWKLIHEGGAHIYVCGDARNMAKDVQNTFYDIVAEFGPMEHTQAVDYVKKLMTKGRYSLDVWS

[2] = test system: calf-thymus DNA; experiment: Equilibrium binding to calf-thymus DNA, Scatchard plots of binding isotherms (spectrophotometric); details: Scatchard plot
Procedure: The "reverse" analogues bind to calf-thymus DNA, but the spectrophotometrically determined binding (Kapp and Bapp, equilibrium binding values) constants are found to be lower than those of AMD. The binding is also measured by thermal denaturation of DNA.
The equilibrium binding constants (Kapp and Bapp) of the "reverse" methyl 7a and the "reverse" phenyl 8a were determined from the Scatchard plots of binding isotherms; the Scatchard plots are produced according to the previously described methods using calf-thymus DNA [Sengupta et al, Biochem. Biophys. Acta 521, 89 (1978)]. The Kapp values are 2.5×10^6 and 2.3×10^6 M^-1, respectively; corresponding Bapp values are 0.038 and 0.036. […] But, these "reverse" analogues associate with DNA less strongly; their frequency of binding is also lower compared to that of AMD. However, the "reverse" analogues fail to cause any measurable change in the ratio of the intrinsic viscosity (γ) of DNA with the increasing ratios of [ligand]/DNA base pair (r), even when low molecular weight DNAs (0.5×10^5 to 1.0×10^5) were employed.

[3] = test system: CCRF-CEM human lymphoblastic leukemic cells; experiment: In vitro cytotoxicity against CCRF-CEM cells; type: cell-based; details: 48 hr
Procedure: ^a Human lymphoblastic leukemic cells.
The analogues were tested for their cytotoxicity against tumor cells (time, 48 hr). […] This may be associated with the initial microsomal transformation of the "reverse" analogues to "symmetrical" analogue and/or other alternate bioactive forms (e.g., free-radicals, O2^-), followed by deactivation via formation of conjugates and facile elimination of these from the host. The "reverse" analogues show reduced toxicity in vivo and also the tritiated "reverse" 7a is metabolized in vitro.

[4] = test system: liver microsomes; experiment: EPR detection of free-radical intermediates with liver microsomes and NADPH (anaerobic); type: biochemical; details: NADPH, potassium phosphate buffer
Procedure: No free-radical intermediates were detected in the absence of enzyme or substrates.
Melting points are determined on a Thomas-Hoover melting point apparatus at a heating rate of 2° C./min. Thin-layer chromatography was performed on silica gel plates (Brinkmann Instrument Inc.). Solvent systems were (A) EtOAc-acetone (4:1), (B) CHCl3 -MeOH (9:1) and (C) Cifferri, the organic phase of the mixture EtOAc-MeOH-H2 O (20:1:20). High-performance liquid chromatography was carried out on a Varian Model 5020 gradient liquid chromatograph equipped with a CD-111L chromatography data system and fitted with a Varian reversed-phase C18 column with the following solvent systems: I, CH3 CN-5 mM NH4 OAc buffer, pH 6.4 (68:32 isocratic), flow rate 1.5 mL/min; II, 65-95% water-methanol gradient for 70 min, 1 mL/min; III, 10-90% H2 O-MeOH gradient for 120 min, 1 mL/min, with UV-visible variable- and fixed-wavelength dual detectors at 254, 440, 470 and 520 nm. IR spectra were obtained on a Perkin-Elmer Model 237 Infra Cord with KBr micropellets or in chloroform solutions. UV-visible spectra were obtained on a Gilford 250 spectrophorometer, which, with the addition of a base-line reference compensator (Analog Multiplexer 5053) and thermoprogrammer, auto four cell programmer and thermoelectric cell holder 2577, were used to obtain thermal denaturation curves. Specific rotation values were determined in chloroform solutions with a Cary 60 spectropolarimeter. NMR spectra were obtained in a JEOL FQ-90 MHz spectrometer equipped with Fourier transform. EPR spectra analyses were recorded in a Varian E-9 EPR spectrometer. All elemental analyses were within ±0.4%.

Row | SMILES | NADPH oxid [1] | percentage stimulation of NADPH oxidation over basal rate [1] [%] | Bapp (equilibrium binding value) [2] | Kapp (equilibrium binding constant) [2] [M⁻¹] | in vitro (CCRF-CEM) ID50 [3] [nM] | free-radical intermediate detected by EPR [4]
1 | Cc1nc2c(C(=O)NC3C(=O)NC(C(C)C)C(=O)N4CCCC4C(=O)N(C)CC(=O)N(C)C(C(C)C)C(=O)OC3C)c3nc4c(C(=O)NC5C(=O)NC(C(C)C)C(=O)N6CCCC6C(=O)N(C)CC(=O)N(C)C(C(C)C)C(=O)OC5C)cc(=O)c(C)c-4oc3c(C)c2o1 (centres unmarked) [9a] | 19.1 ± 1.70 nmol min^-1 (mg of protein)^-1 | 110 |  |  |  | 
2 | Cc1nc2c(C(=O)NC3C(=O)NC(C(C)C)C(=O)N4CCCC4C(=O)N(C)CC(=O)N(C)C(C(C)C)C(=O)OC3C)c3nc4c(C(=O)NC5C(=O)NC(C(C)C)C(=O)N6CCCC6C(=O)N(C)CC(=O)N(C)C(C(C)C)C(=O)OC5C)c(N)c(=O)c(C)c-4oc3c(C)c2o1 [7a, 7-Amino-2,9,11-trimethyl-8H-8-oxooxazolo [4,5-b]phenoxazine 4,6-bis[carbonyl-L-threonyl-D-valyl-L-prolylsarcosyl-L-N-methylvaline-(threonine hydroxyl)] lactone] | 21.3 ± 1.93 nmol min^-1 (mg of protein)^-1 | 134 | 0.038 | 2.5e+06 | 110 | Free-radical intermediates were also detected
3 | Cc1c2oc3c(C)ccc(C(=O)N[C@@H]4C(=O)N[C@H](C(C)C)C(=O)N5CCC[C@H]5C(=O)N(C)CC(=O)N(C)[C@@H](C(C)C)C(=O)O[C@@H]4C)c3nc-2c(C(=O)N[C@@H]2C(=O)N[C@H](C(C)C)C(=O)N3CCC[C@H]3C(=O)N(C)CC(=O)N(C)[C@@H](C(C)C)C(=O)O[C@@H]2C)c(N)c1=O [AMD, Actinomycin D] (I: T[dV]P[Sar][NMeV] / II: T[dV]P[Sar][NMeV]; ester I:1-I:C, II:1-II:C; linker I:N-II:N via Actinocin(9to1)) | 10.01 ± 0.90 nmol min^-1 (mg of protein)^-1 | 9.9 | 0.108 | 2.3e+07 | 50 | free-radical intermediate with broad resonance peaks was detected
4 | Cc1c2oc3c(C)c(O)c(N)c(C(=O)NC4C(=O)NC(C(C)C)C(=O)N5CCCC5C(=O)N(C)CC(=O)N(C)C(C(C)C)C(=O)OC4C)c3nc-2c(C(=O)NC2C(=O)NC(C(C)C)C(=O)N3CCCC3C(=O)N(C)CC(=O)N(C)C(C(C)C)C(=O)OC2C)c(N)c1=O (centres unmarked) [4a, 7-Hydroxy-8-amino-actinomycin D] | 64.3 ± 2.11 nmol min^-1 (mg of protein)^-1 | 606 | 1.3 | 6.3e+07 | 30 | Free-radical intermediates were also detected
